Test results: patent US10213415B2, “Compounds as opioid receptor modulators” (JANSSEN PHARMACEUTICA NV, priority 2004, dated 2019)
Read-outs that look alike come from different tables or passages of the source.

What was measured:
[1] = molecular target: T1, mu opioid receptor (CHO-hMOR cell membranes) (Homo sapiens, UniProt P35372); test: Mu Opioid Receptor Functional Assay: [35S]GTPγS Binding in CHO-hMOR Cell Membranes, Versions 1 and 2; format: biochemical; settings: for MOR GTP binding assay_v1 (% I): version 1, % inhibition of agonist-stimulated GTPγS binding; for MOR GTP assay_v1 % of Basal: version 1, basal binding = 100%
T1 construct: purchased Receptor Biology, Inc. (Baltimore, Md.); host or cells: CHO cells (recombinant expression)
Summary of the method: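 Agonist-stimulated [35S]GTPγS (0.5 nM) binding measured by SPA in human MOR CHO membranes, buffer pH 7.6 with 100 mM NaCl, 5 mM MgCl2. Antagonist mode: % inhibition of stimulation by 1 μM SNC80; agonist mode: EC50 fitted. Basal binding without agonist, non-specific with 10 μM cold GTPγS.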

[2] = molecular target: T2, delta opioid receptor (CHO-hδ cell membranes) (Homo sapiens, UniProt P41143); test: Delta Opioid Receptor Functional Assay: [35S]GTPγS Binding in CHO-hδ Cell Membranes, Version 1; format: biochemical; settings: read-out: DOR GTP-binding Assay_v1 EC50
T2 construct: purchased Receptor Biology, Inc. (Baltimore, Md.); host or cells: CHO cells (recombinant expression)
Description: CHO-hδ cell membranes were purchased from Receptor Biology, Inc. (Baltimore, Md.). 10 mg/ml of membrane protein suspended in 10 mM TRIS-HC pH 7.2, 2 mM EDTA, 10% sucrose.
(§1) Membranes were maintained at 4-8° C. A portion (1 ml) of membranes was added into 15 mL cold binding assay buffer. The assay buffer contained 50 mM HEPES, pH 7.6, 5 mM MgCl2, 100 mM NaCl, 1 mM DTT and 1 mM EDTA. The membrane suspension was homogenized with a Polytron for 2 times and centrifuged at 3000 rpm for 10 min. The supernent was then centrifuged at 18,000 rpm for 20 min. The pellet was saved in a tube and 10 ml assay buffer was added into the tube. The pellet and buffer were mixed with a Polytron.
The pellet membranes (20 μg/ml) were preincubated with SPA (10 mg/ml) at 25° C. for 45 min in the assay buffer. The SPA (5 mg/ml) coupled with membranes (10 μg/ml) was then incubated with 0.5 nM [^35S]GTPγS in the same HEPES buffer containing 50 μM GDP in total volume of 200 μl. Increasing concentrations of receptor agonists were used to stimulate [^35S]GTPγS binding. The basal binding was tested in the absent agonists and no specific binding was tested in the present 10 μM unlabeled GTPγS. The data were analyzed on a Top counter.
Data The % of Basal=(stimulate−non specific)*100/(basal−non specific). EC50 values were calculated using a Prism program.

[3] = molecular target: T3, human delta subtype 2 opioid receptor (Homo sapiens, UniProt P41143); test: Human Delta Opioid Receptor Binding Assay (CHO membranes, 3H-Naltrindole); settings: read-out: hKi δ
T3 construct: purchased Perkin Elmer RBHODM400UA; host or cells: Chinese Hamster Ovary cells (recombinant expression)
Summary of the method: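 Compound displacement of tritiated naltrindole (6 nM working dilution) measured by scintillation counting after GF/C filtration. Receptor source: recombinant CHO membranes; buffer 50 mM Tris, 5 mM MgCl2, pH 7.5; 30 min room-temperature incubation. 1 μM cold naltrindole sets nonspecific binding.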

[4] = molecular target: T4, mu opioid receptor (Rattus norvegicus, UniProt P33535); test: Rat Brain Mu Opioid Receptor Binding Assay (and Version 2a, [3H]DAMGO); settings: rat forebrain membranes, margin of error 10-20%, read-out: r Ki μ
T4 construct: from tissue; host or cells: forebrain of male Wistar rats
Summary of the method: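 Displacement of the mu-selective radioligand [3H]DAMGO (0.8 nM) measured by filtration and scintillation counting after 2.5 h at 25° C. Membranes came from male Wistar rat forebrain in Tris-HCl (50 mM, pH 7.4) plus 5 mM MgCl2; Ki derived from concentration–response, % inhibition for single doses.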

[5] = molecular target: T5, delta opioid receptor (Rattus norvegicus, UniProt P33533); test: Rat Brain Delta Opioid Receptor Binding Assay ([3H]DPDPE); settings: rat forebrain membranes, margin of error 10-20%, read-out: r Ki δ
T5 construct: from tissue; host or cells: forebrain of male Wistar rats
Summary of the method: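 Rat (male Wistar) forebrain membranes in 50 mM Tris-HCl pH 7.4 with 5 mM MgCl2, incubated with ~4 nM [3H]DPDPE for 2.5 h at 25 °C. Bound ligand collected by filtration and scintillation counting. Single-concentration data given as % inhibition of specific binding; concentration series fitted to Ki.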

[6] = test system: male CD-1 mice; test: In Vivo Assay: Upper GI Tract Transit (MUGIT); settings: Mus musculus, po, 1 h, dose 30 (mg), p.o., read-out: upper GI transit (% ctrl)
Description: Methods: The animals used in these studies were male CD-1 mice, ave. wt. ˜30 g. Mice were housed under 12 h/12 h light/dark cycle, food & water ad lib. On the day of the experiment mice were assigned to experimental groups, including one vehicle-only group (=control). At 30 min before administration of carmine dye, animals were dosed with vehicle or vehicle-plus-compound, mice were returned to their home cages after drug administration. After administration of carmine, the animals were either returned to their home cages (non-stressed) or individually placed in the same metal cages as used in the fecal output or entire GI tract transit to induce a novel environment stress. One hour after administration of carmine, mice were sacrificed by cervical dislocation, the abdomen opened midventrally, the small intestine from pylorus to cecum was removed, the mesentery divided in order to lay the intestine straight & flat—without stretching. The total length of intestine and the length of carmine-dyed intestine were measured in order to determine the percent of the upper GI tract over which transit had occurred as follows: {(Length of carmine-dyed intestine)/(Total length of intestine)}×100=% upper GI transit. The data expressed were group means±SD (or s.e.m.) and data expressed as % of control.

[7] = molecular target: T6, delta opioid receptor (NG108-15 cell membranes) (Mus musculus, UniProt P32300); test: Delta Opioid Receptor Functional Assay: [35S]GTPγS Binding in NG108-15 Cell Membranes, Version 2; format: biochemical; settings: NG108-15 cell membranes, version 2
T6 construct: NG108-15 cell membranes were purchased from Applied Cell Sciences (Rockville, Md.); host or cells: NG108-15 cells (membranes purchased)
Description: NG108-15 cell membranes were purchased from Applied Cell Sciences (Rockville, Md.). 8 mg/ml of membrane protein suspended in 10 mM TRIS-HC pH 7.2, 2 mM EDTA, 10% sucrose.
as §1, with “10 ml” for “15 mL”, “Tris,” for “HEPES,”, “EGTA.” for “EDTA.”
The pellet membranes (75 μg/ml) were preincubated with SPA (10 mg/ml) at 25° C. for 45 min in the assay buffer. The SPA (5 mg/ml) coupled with membranes (37.5 μg/ml) was then incubated with 0.1 nM [^35S] GTPγS in the same Tris buffer containing 100 μM GDP in total volume of 200 μl. Increasing concentrations of receptor agonists were used to stimulate [^35S] GTPγS binding. The basal binding was tested in the absent agonists and no specific binding was tested in the present 10 μM unlabeled GTPγS. The data were analyzed on a Top counter.
[formula] % Inhibition=(% stimulation by 1 μM SNC80−% stimulation by 1 μM SNC80 in presence of test compound)×100/(% Stimulation by 1 μM SNC80−100) % of Basal=(stimulate−non specific)*100/(basal−non specific). EC50 values were calculated using GraphPad Prism.

[8] = molecular target: T7, human mu opioid receptor (Homo sapiens, UniProt P35372); test: Human Mu Opioid Receptor Binding Assay (CHO membranes, 3H-Damgo); settings: read-out: hKi μ
T7 construct: purchased Perkin Elmer RBHOMM400UA; host or cells: Chinese Hamster Ovary cells (recombinant expression)
Summary of the method: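 Radioligand displacement of ³H-Damgo (diluted to 3.6 nM pre-mix) from recombinant human mu receptor in CHO membranes, 2 h, room temperature, 50 mM Tris pH 7.5 with 5 mM MgCl2. Bound label read by filtration and scintillation counting; 1 μM unlabelled Damgo defines nonspecific binding.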

[9] = test system: novel environment-stressed mice; test: In Vivo Assay-Stress-Induced Fecal Output (Fecal Output for 1 hr); parameters: species or system mouse; settings: 1 hr; for Fecal Output (# pellets) cpd: novel environment-stressed mice; for response vs control in vivo at 10 mg/kg / response vs control in vivo at 30 mg/kg: Mus musculus, po, 1 h
Summary of the method: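 Adult male Crl:CD-1(ICR) mice (˜30-35 g; at least 10 per dose group) were split into acclimated non-stressed controls, held individually for 16-18 hr in wire-mesh-bottom cages, and non-acclimated stressed groups. Mice were dosed intragastrically with vehicle or test compound in 0.5% methylcellulose, housed individually in novel cages over absorbent cardboard, and fecal pellets per mouse were counted hourly.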

T2 sequence (P41143 whole entry): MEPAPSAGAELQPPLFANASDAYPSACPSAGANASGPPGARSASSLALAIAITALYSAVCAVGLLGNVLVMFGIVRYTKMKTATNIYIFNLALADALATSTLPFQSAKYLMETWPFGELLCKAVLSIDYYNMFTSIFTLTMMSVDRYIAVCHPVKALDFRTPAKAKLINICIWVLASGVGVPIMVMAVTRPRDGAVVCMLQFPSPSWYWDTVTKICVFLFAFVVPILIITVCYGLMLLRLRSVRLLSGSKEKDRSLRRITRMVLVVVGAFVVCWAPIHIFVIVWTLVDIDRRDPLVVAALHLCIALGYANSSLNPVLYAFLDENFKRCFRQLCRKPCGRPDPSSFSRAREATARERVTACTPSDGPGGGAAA
T3 sequence (P41143 whole entry): as above
T5 sequence (P33533 whole entry): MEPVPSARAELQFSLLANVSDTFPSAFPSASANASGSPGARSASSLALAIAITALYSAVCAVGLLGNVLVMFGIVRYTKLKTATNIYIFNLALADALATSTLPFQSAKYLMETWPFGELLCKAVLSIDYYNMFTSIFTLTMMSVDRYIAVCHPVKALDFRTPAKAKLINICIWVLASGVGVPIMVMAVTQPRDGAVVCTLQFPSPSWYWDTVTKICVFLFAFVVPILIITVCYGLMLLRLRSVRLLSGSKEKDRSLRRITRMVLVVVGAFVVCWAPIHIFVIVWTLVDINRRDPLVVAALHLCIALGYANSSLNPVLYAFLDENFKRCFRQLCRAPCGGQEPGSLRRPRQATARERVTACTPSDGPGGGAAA
T7 sequence (P35372 whole entry): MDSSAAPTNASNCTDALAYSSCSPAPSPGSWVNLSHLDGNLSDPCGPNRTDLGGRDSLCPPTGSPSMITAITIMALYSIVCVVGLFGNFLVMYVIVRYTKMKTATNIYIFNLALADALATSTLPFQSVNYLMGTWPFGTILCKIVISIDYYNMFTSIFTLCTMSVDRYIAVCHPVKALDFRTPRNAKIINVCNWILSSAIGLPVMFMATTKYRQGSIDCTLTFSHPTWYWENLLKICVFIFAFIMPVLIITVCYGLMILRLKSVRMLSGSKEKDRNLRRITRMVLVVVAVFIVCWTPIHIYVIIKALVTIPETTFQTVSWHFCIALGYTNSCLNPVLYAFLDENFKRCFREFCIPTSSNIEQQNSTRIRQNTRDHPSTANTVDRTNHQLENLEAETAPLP
T1 sequence (P35372 whole entry): as above
T4 sequence (P33535 whole entry): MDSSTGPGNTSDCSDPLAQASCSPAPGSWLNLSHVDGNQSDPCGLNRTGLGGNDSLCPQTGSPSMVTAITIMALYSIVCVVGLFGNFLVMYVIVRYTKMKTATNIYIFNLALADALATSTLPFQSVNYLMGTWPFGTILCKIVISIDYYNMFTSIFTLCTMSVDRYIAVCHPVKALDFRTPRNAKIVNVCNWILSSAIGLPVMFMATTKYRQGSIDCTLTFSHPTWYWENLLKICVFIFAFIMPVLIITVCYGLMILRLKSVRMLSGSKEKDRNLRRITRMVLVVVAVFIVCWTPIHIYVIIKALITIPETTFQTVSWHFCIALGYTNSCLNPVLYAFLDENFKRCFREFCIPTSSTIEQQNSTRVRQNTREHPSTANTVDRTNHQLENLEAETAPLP
T6 sequence (P32300 whole entry): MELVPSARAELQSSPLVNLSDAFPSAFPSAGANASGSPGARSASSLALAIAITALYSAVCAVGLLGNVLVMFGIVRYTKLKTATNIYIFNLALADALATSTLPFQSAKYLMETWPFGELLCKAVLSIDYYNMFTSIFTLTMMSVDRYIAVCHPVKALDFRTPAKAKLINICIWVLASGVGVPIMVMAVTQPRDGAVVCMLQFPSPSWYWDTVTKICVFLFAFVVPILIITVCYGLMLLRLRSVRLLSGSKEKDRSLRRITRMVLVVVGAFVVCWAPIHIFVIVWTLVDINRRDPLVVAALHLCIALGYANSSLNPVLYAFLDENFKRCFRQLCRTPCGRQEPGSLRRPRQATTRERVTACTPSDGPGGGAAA

Row | Structure (SMILES) | MOR GTP binding assay_v1 (% I) [1] [%] | MOR GTP assay_v1 % of Basal [1] [%] | EC50 [2] [nM] | Ki [3] [nM] | further results
1 | Cc1cc(O)cc(C)c1C[C@H](N)C(=O)N(Cc1nc(-c2ccc(Cl)cc2)c(C)[nH]1)C(C)C [Cpd 147] | 1.00 | 779.35 | 51 | 241 | 
2 | C[C@@H](c1nc(-c2ccccc2)c[nH]1)N(C)C(=O)[C@@H](N)Cc1ccc(C(N)=O)cc1 [Cpd 202] | 1.00 | 529.00 | 1580 |  | Ki [4]: 5.9 nM; Ki [5]: 31.5 nM
3 | Cc1cc(O)cc(C)c1C[C@H](N)C(=O)N(Cc1nc(-c2ccccc2Cl)c(C)[nH]1)C(C)C [Cpd 155] | 14.32 | 655.93 | 150 | 345 | 
4 | Cc1cc(O)cc(C)c1C[C@H](N)C(=O)N(Cc1nc(-c2ccc(C(F)(F)F)cc2)c(C)[nH]1)C(C)C [Cpd 149] | 1.00 | 753.53 | 44 | 408 | 
5 | Cc1cc(O)cc(C)c1C[C@H](N)C(=O)N(Cc1ccc(C(=O)O)o1)[C@@H](C)c1nc(-c2ccccc2)c[nH]1 [Cpd 287] |  |  |  |  | Ki [4]: 0.13 nM; response vs control in vivo at 30 mg [6]: 66.4%; Ki [5]: 0.14 nM; EC50 ([7]; [35S]GTPγS, read-out: DOR GTP-binding Assay_v2_ EC50): > 10000 nM; DOR GTP-binding Assay v2 (% I) ([7]; % inhibition of agonist-stimulated GTPγS binding): 84.50%
6 | Cc1cc(O)cc(C)c1C[C@H](N)C(=O)N(Cc1nc(-c2ccccc2F)c(C)[nH]1)C(C)C [Cpd 117] | 3.31 | 816.16 | 37 | 118 | Ki [8]: 0.24 nM
7 | Cc1cc(O)cc(C)c1C[C@H](N)C(=O)N(Cc1nc(-c2ccccc2C(F)(F)F)c(C)[nH]1)C(C)C [Cpd 151] | 24.19 | 606.38 | 350 | 1300 | 
8 | Cc1cc(O)cc(C)c1C[C@H](N)C(=O)N(Cc1nc(-c2ccsc2)c(C)[nH]1)C(C)C [Cpd 146] | 2.79 | 740.77 | 27 | 71 | 
9 | Cc1cc(O)cc(C)c1C[C@H](N)C(=O)N(Cc1nc(-c2cncnc2)c(C)[nH]1)C(C)C [Cpd 131] | 28.64 | 391.98 | 99 | 675 | Ki [8]: 3.1 nM
10 | Cc1cc(O)cc(C)c1C[C@H](N)C(=O)N(Cc1nc(-c2cccc(CO)c2)c(C)[nH]1)C(C)C [Cpd 130] | 1.62 | 866.39 | 16 | 712 | Ki [8]: 1.6 nM
11 | CCN(C(=O)[C@@H](N)Cc1c(C)cc(O)cc1C)[C@H](c1nc(-c2ccccc2)c[nH]1)C(C)C [Cpd 170] | 26.00 |  | 115 |  | Ki [4]: 0.48 nM; Ki [5]: 32.6 nM
12 | Cc1cc(O)cc(C)c1C[C@H](N)C(=O)N(Cc1nc(-c2ccc3ccccc3c2)c(C)[nH]1)C(C)C [Cpd 150] | 53.35 | 476.63 | 49 | 992 | 
13 | Cc1cc(C(N)=O)cc(C)c1C[C@H](N)C(=O)N(C)[C@@H](C)c1nc(-c2ccccc2)c[nH]1 [Cpd 196] | 1.00 | 620.00 | 24 |  | Fecal Output (# pellets) cpd ([9]; 10 mg/kg oral): 9.2 pellets; Fecal Output (# pellets) cpd ([9]; 30 mg/kg oral): 4.3 pellets; response vs control in vivo at 10 mg/kg ([9]; 10 mg/kg oral, relative to acclimated control, read-out: Fecal Output cpd % control): 249%; response vs control in vivo at 10 mg/kg ([9]; 10 mg/kg oral, relative to novel environment stress (NES) vehicle group, read-out: Fecal Output cpd % NES): 65.7%; response vs control in vivo at 30 mg/kg ([9]; 30 mg/kg oral, relative to acclimated control, read-out: Fecal Output cpd % control): 391%; response vs control in vivo at 30 mg/kg ([9]; 30 mg/kg oral, relative to novel environment stress (NES) vehicle group, read-out: Fecal Output cpd % NES): 45.3%
14 | CCN(C(=O)[C@@H](N)Cc1c(C)cc(C(N)=O)cc1C)[C@@H](C)c1nc(-c2ccccc2)c[nH]1 [Cpd 197] | 1.00 | 582.00 | 140 |  | Ki [4]: 0.9 nM; Ki [5]: 4.27 nM
